Key:
Assay type in all cases: cell-based, human
[1] = tested on: T2 cells loaded with peptide; test: 51-Cr release assay of expanded T cell clones
Protocol: The ten expanded T cell clones isolated by Flow sorting as shown in example 39 were tested for their specificity by analysis in a standard 51-Cr release assay. […] One of these BclX(L)173-182 specific CD8 T-cell clones [Clone 9] were expanded for further analyses.

[2] = tested on: Bcl-X(L)-specific, CD8 positive T cells in PBL; test: ELISPOT ex vivo with BclX(L) peptide; conditions: PBL from a breast cancer patient, with vs without peptide, FIG. 15
Protocol: In example 22 the best binding BclX(L) 10-mer peptide for HLA-A*0201 was identified to be […] (SEQ ID NO.: 46196). This peptide has then been tested in ELISPOT to see if it were able to detect the presence Bcl-X(L)-specific, CD8 positive T cells in PBL (Peripheral Blood Lymphocytes) from a breast cancer patient. PBL from a breast cancer patient was analyzed by ELISPOT ex vivo either with or without the Bcl-X(L)173-182 peptide ([…] (SEQ ID NO.: 46196)), […] in doublets. The number of spots was counted using the Immunospot Series 2.0 Analyzer (CTL Analysers).

[3] = tested on: T2 cells pulsed with peptide; test: 51Cr-release assays with Bcl-X(L)173-182 specific clone 9
Description: The Bcl-X(L)173-182 specific clone 9 was expanded for additional 2 weeks before the cytotoxic potential was examined further in 51Cr-release assays.

[4] = CD8 T-cell clones 8, 9, 10, 11 and 12, FIG. 17

Sequence	lysis of peptide pulsed T2 cells [1, 4]	ELISPOT detection of Bcl-X(L)-specific CD8 positive T cells (number of spots) [2]	lysis of peptide pulsed T2 cells ([1]; expanded clones 7, 13, 15, 17 and 18)	cell lysis of T2 cells pulsed with different concentrations of peptide ([3]; clone 9, E:T ratio 1:1, FIG. 18)	cell lysis of peptide pulsed T2 cells ([3]; clone 9, three E:T ratios, vs irrelevant peptide, FIG. 18)
GLQHWVPEL [BA4697-105, irrelevant peptide, reference compound]	without killing				
YLNDHLEPWI	effectively lysed	clearly shows the presence of BclX(L) specific T-cells	did not show specific lysis	significant even at low concentrations	necessary to get killing of the target cell

From patent US10336808B2, “MHC peptide complexes and uses thereof in infectious diseases” (priority 2007, dated 2019)
